Earlier results on two compounds are cited in article PMC8476002, “Bergamottin a CYP3A inhibitor found in grapefruit juice inhibits prostate cancer cell growth by downregulating androgen receptor signaling and promoting G0/G1 cell cycle block and apoptosis” (PLoS ONE, 2021).

The subject of one data set is cell growth. As to conditions: earlier work of the authors; cited from earlier work.
A further data set relates to cytoplasmic AR. On the set-up: method as in PMID 32316460. As to conditions: cited from earlier work.

Regarding `CC[C@]1(C)C[C@@H](OC(=O)CSc2nnc(N)[nH]2)[C@]2(C)[C@H](C)CC[C@]3(CCC(=O)[C@H]32)[C@@H](C)[C@@H]1O` [azamulin], the cell growth entry with cell growth is on record as “cell growth is inhibited”. On to `CC(C)c1nc(CN(C)C(=O)N[C@H](C(=O)N[C@@H](Cc2ccccc2)C[C@H](O)[C@H](Cc2ccccc2)NC(=O)OCc2cncs2)C(C)C)cs1` [ritonavir], for which, in the data set on cytoplasmic AR, the “cytoplasmic AR” value was “increase in cytoplasmic AR”.
